Results published in the NIST ThermoML archive (doi:10.1016/j.jct.2009.07.002).

Experiment: isobaric coefficient of expansion
Conditions: Liquid, DSC with Pressure Shift

CCCCCCCCO [octan-1-ol]
isobaric coefficient of expansion
Conditions	278.15 K	288.15 K	298.15 K	308.15 K	318.15 K	328.15 K	338.15 K	348.15 K
5000 kPa	0.000816 1/K	0.000817 1/K	0.000818 1/K	0.00084 1/K	0.000859 1/K	0.000877 1/K	0.0009 1/K	0.000928 1/K
10000 kPa	0.000798 1/K	0.000793 1/K	0.000799 1/K	0.000821 1/K	0.000837 1/K	0.00085 1/K	0.000873 1/K	0.000896 1/K
15000 kPa	0.00078 1/K	0.000774 1/K	0.000784 1/K	0.000801 1/K	0.000815 1/K	0.000827 1/K	0.000845 1/K	0.000865 1/K
20000 kPa	0.000755 1/K	0.000761 1/K	0.000764 1/K	0.000783 1/K	0.000793 1/K	0.000805 1/K	0.000822 1/K	0.000843 1/K
25000 kPa	0.000742 1/K	0.000746 1/K	0.000749 1/K	0.000762 1/K	0.000775 1/K	0.000787 1/K	0.000801 1/K	0.000821 1/K
30000 kPa	0.00073 1/K	0.000732 1/K	0.000736 1/K	0.000746 1/K	0.000758 1/K	0.000767 1/K	0.000783 1/K	0.0008 1/K
35000 kPa	0.000717 1/K	0.000715 1/K	0.000724 1/K	0.00073 1/K	0.000742 1/K	0.000751 1/K	0.000766 1/K	0.00078 1/K
40000 kPa	0.000704 1/K	0.000707 1/K	0.000714 1/K	0.000716 1/K	0.000727 1/K	0.000735 1/K	0.000746 1/K	0.000762 1/K
45000 kPa	0.00069 1/K	0.000692 1/K	0.000698 1/K	0.000702 1/K	0.000711 1/K	0.000719 1/K	0.000731 1/K	0.000745 1/K
50000 kPa	0.000683 1/K	0.000681 1/K	0.000687 1/K	0.000692 1/K	0.000698 1/K	0.000705 1/K	0.000717 1/K	0.000731 1/K
55000 kPa	0.000673 1/K	0.000671 1/K	0.000676 1/K	0.000678 1/K	0.000688 1/K	0.000692 1/K	0.000705 1/K	0.000717 1/K

CCCCCO [pentan-1-ol]
isobaric coefficient of expansion
Conditions	278.15 K	288.15 K	298.15 K	308.15 K	318.15 K	328.15 K	338.15 K	348.15 K
5000 kPa	0.000863 1/K	0.000873 1/K	0.000889 1/K	0.000908 1/K	0.000934 1/K	0.00096 1/K	0.001 1/K	0.00105 1/K
10000 kPa	0.000833 1/K	0.00085 1/K	0.000864 1/K	0.000883 1/K	0.000904 1/K	0.00093 1/K	0.000961 1/K	0.001 1/K
15000 kPa	0.000826 1/K	0.000831 1/K	0.000847 1/K	0.00086 1/K	0.000879 1/K	0.000899 1/K	0.000927 1/K	0.00096 1/K
20000 kPa	0.000805 1/K	0.000813 1/K	0.000825 1/K	0.000838 1/K	0.000853 1/K	0.000873 1/K	0.000899 1/K	0.000927 1/K
25000 kPa	0.000788 1/K	0.000795 1/K	0.000805 1/K	0.000816 1/K	0.00083 1/K	0.000849 1/K	0.000874 1/K	0.000899 1/K
30000 kPa	0.000778 1/K	0.000779 1/K	0.000788 1/K	0.000796 1/K	0.000814 1/K	0.000827 1/K	0.000847 1/K	0.000871 1/K
35000 kPa	0.000752 1/K	0.000761 1/K	0.000772 1/K	0.00078 1/K	0.000794 1/K	0.000809 1/K	0.000828 1/K	0.000849 1/K
40000 kPa	0.000742 1/K	0.000747 1/K	0.000757 1/K	0.000763 1/K	0.000776 1/K	0.00079 1/K	0.000806 1/K	0.000826 1/K
45000 kPa	0.000735 1/K	0.000735 1/K	0.000741 1/K	0.000748 1/K	0.000759 1/K	0.000772 1/K	0.000786 1/K	0.000807 1/K
50000 kPa	0.000719 1/K	0.000724 1/K	0.000729 1/K	0.000734 1/K	0.000745 1/K	0.000755 1/K	0.000773 1/K	0.000787 1/K
55000 kPa	0.000714 1/K	0.000713 1/K	0.000717 1/K	0.000721 1/K	0.000731 1/K	0.00074 1/K	0.000755 1/K	0.000768 1/K

CCCC(C)O (centres undefined) [pentan-2-ol]
isobaric coefficient of expansion
Conditions	278.15 K	288.15 K	298.15 K	308.15 K	318.15 K	328.15 K	338.15 K	348.15 K
5000 kPa	0.000883 1/K	0.000922 1/K	0.000961 1/K	0.00101 1/K	0.00106 1/K	0.0011 1/K	0.00114 1/K	0.00119 1/K
10000 kPa	0.000858 1/K	0.000896 1/K	0.000935 1/K	0.000983 1/K	0.00103 1/K	0.00107 1/K	0.00111 1/K	0.00115 1/K
15000 kPa	0.00084 1/K	0.00088 1/K	0.000914 1/K	0.000956 1/K	0.001 1/K	0.00103 1/K	0.00107 1/K	0.00111 1/K
20000 kPa	0.000827 1/K	0.000857 1/K	0.00089 1/K	0.000929 1/K	0.000971 1/K	0.00101 1/K	0.00105 1/K	0.00108 1/K
25000 kPa	0.000801 1/K	0.000842 1/K	0.000872 1/K	0.000909 1/K	0.000946 1/K	0.000983 1/K	0.00102 1/K	0.00105 1/K
30000 kPa	0.000789 1/K	0.000823 1/K	0.000851 1/K	0.000889 1/K	0.000923 1/K	0.000957 1/K	0.000991 1/K	0.00102 1/K
35000 kPa	0.000773 1/K	0.000805 1/K	0.000834 1/K	0.000868 1/K	0.000902 1/K	0.000933 1/K	0.000967 1/K	0.000995 1/K
40000 kPa	0.000756 1/K	0.000788 1/K	0.00081 1/K	0.00085 1/K	0.000879 1/K	0.000914 1/K	0.000941 1/K	0.00097 1/K
45000 kPa	0.000745 1/K	0.000775 1/K	0.000799 1/K	0.00083 1/K	0.00086 1/K	0.000889 1/K	0.00092 1/K	0.000946 1/K
50000 kPa	0.00073 1/K	0.000758 1/K	0.000784 1/K	0.000814 1/K	0.000841 1/K	0.000872 1/K	0.000899 1/K	0.000923 1/K
55000 kPa	0.000719 1/K	0.000745 1/K	0.000766 1/K	0.000793 1/K	0.000819 1/K	0.000844 1/K	0.000866 1/K	0.000888 1/K
